Assays:
Type in all cases: cell-based, human
[1] = tested on: MCF-7 cells; test: Dose response assay, ATPlite viability, four days; settings: Homo sapiens, MCF7, 96 h; MCF-7, four days of treatment, ATP viability
Procedure: (§1) Cells were seeded in white 96-well plates (Costar, Tewksbury, MA, USA) in 100 μL of their respective media at varying densities to achieve 80% to 90% confluency after five days in culture. The compounds dissolved in DMSO were diluted in their corresponding media containing 2% FBS and an EP Motion 5075 (Eppendorf North America, Hauppauge, NY, USA) liquid handler was utilized to perform a serial dilution. […] After the cells were cultured for 24 hours, the media were aspirated and the cells were treated with the compounds and vehicle controls in triplicate. After four days of treatment, viability was determined utilizing the ATPlite 1step assay system (Perkin Elmer, Waltham, MA, USA) according to the manufacturer's instructions. Luminescence measurements were acquired utilizing a Perkin Elmer 2104 EnVision plate reader. Raw luminescence values were normalized to the DMSO vehicle control wells.

[2] = tested on: MDA-MB-231 cells; test: Dose response assay, ATPlite viability, four days; settings: Homo sapiens, 96 h; MDA-MB-231, four days of treatment, ATP viability
Procedure: as §1

[3] = tested on: PE1007070 cells; test: Dose response assay, ATPlite viability, four days; settings: Homo sapiens, 96 h, PE1007070, four days of treatment, ATP viability
Procedure: as §1

[4] = tested on: PE1008032 cells; test: Dose response assay, ATPlite viability, four days; settings: Homo sapiens, 96 h, PE1008032, four days of treatment, ATP viability
Procedure: as §1

[5] = tested on: PE904557a cells; test: Dose response assay, ATPlite viability, four days; settings: Homo sapiens, 96 h, four days of treatment, ATP viability, N/A = data could not be fitted
Procedure: as §1

[6] = tested on: T47D cells; test: Dose response assay, ATPlite viability, four days; settings: Homo sapiens, 96 h, four days of treatment, ATP viability
Procedure: as §1

[7] = tested on: hTERT-HMEC cells; test: Dose response assay, ATPlite viability, four days
Procedure: as §1

[8] = tested on: PE904557a, PE900642a and PE1100025 cells; test: Live/dead assay, three-dimensional Matrigel culture; settings: 30 or 60 μM, five days
Procedure: For the three dimensional culture experiments, PE904557a, PE900642a and PE11000025 cells were seeded in a 24-well ultra low adhesion plate (Costar) at approximately 2 × 10^6 cells/mL in mammary epithelial cell growth medium (MEGM) complete media (Lonza, Basel Switzerland) and were cultured overnight. The resulting aggregates were separated from single cells by differential centrifugation. Next, 20 μL of growth factor reduced Matrigel (BD Biosciences) was added to each well of a black walled clear bottom 24-well plate (Greiner Bio-one) and was allowed to solidify to form a base layer. The aggregates were then suspended in Matrigel on ice and approximately 300 aggregates in 40 μL were added to each well. After the Matrigel solidified, modified M87 media was added to each well and the cells were cultured overnight. The media were subsequently aspirated and the cells were treated with 30 or 60 μM C-6 or the corresponding 0.06% (v/v) DMSO vehicle control. After culturing for five days, the viability and cytotoxicity were determined utilizing the Live/dead assay (Life Technologies) in the same manner as described above. Multiple Z-planes of the organoids were subsequently imaged utilizing an IX81 microscope (Olympus) running Slide Book 5.0 software (Intelligent Imaging Innovations).

SMILES: COc1cc(OC)cc(C(C)c2ccc(NC(=O)OC(C)(C)C)cc2)c1 (centres unmarked) [C-6]
- EC50 [1]: 11 µM
- EC50 [2]: 10.5 µM
- EC50 [3]: 24.4 µM
- EC50 [4]: 33.3 µM
- EC50 [5]: 75.7 µM
- EC50 [6]: 8.29 µM
- effect on viability [7]: did not significantly reduce the viability
- cell death in three-dimensional culture [8]: able to induce cell death

Reference: publication PMC4028696, “Development of a screen to identify selective small molecules active against patient-derived metastatic and chemoresistant breast cancer cells” (Breast Cancer Research : BCR, 2013)
